# Experimental data reported in patent EP3797781A1, “USE OF EC-7072 AND SYNERGIC COMPOSITIONS THEREOF IN TREATMENT OF CHRONIC LYMPHOCYTIC LEUKEMIA” (priority 2019, dated 2021).
# System: T cells isolated from patients with CLL
# Assay: T cell apoptosis by Annexin V/PI staining
# Format: cell-based, human
# Conditions: 200 nM, 24 hours; n = 3
# Procedure: Cell viability and apoptosis were evaluated by double-staining with the mitochondrial inner transmembrane potential (ΔΨm)-sensitive dye DiOC6(3) (3,3'-dihexyloxacarbocyanine iodide; Sigma-Aldrich) and the exclusion dye propidium iodide (PI; Immunostep), allowing identification of apoptotic [DiOC6(3)^low PI^-] and dead [PI^+] cells as per Proc. Natl. Acad. Sci. U.S.A. (2014) 111(8):3020-3025 and Methods Mol. Biol. (2016) 1419:1-16. Briefly, PBMCs were resuspended in culture medium containing 20 nM DiOC6(3) and incubated for 30 minutes at 37 °C. Then, PI (1 µg/mL) was added and cells were further incubated for 10 minutes at room temperature (RT). Cells were analyzed by flow cytometry considering DiOC6(3)^+PI^- cells as viable. In some experiments, apoptosis was evaluated by staining with Annexin V/PI. […]
# The induction of caspase-dependent apoptosis on primary CLL cells by EC-7072 was assessed by: • (i) incubating PBMCs isolated from patients with CLL (n = 6) following treatment with increasing concentrations of EC-7072 (0 - 400 nM) for 24 hours. Apoptosis of leukemia cells was evaluated by cytofluorometric assessment of Annexin V/PI staining to obtain percentages of apoptotic [Annexin V^+ PI^-] and dead [PI^+] cells (Figure 3A); • (ii) incubating PBMCs and T cells isolated from patients with CLL (n = 3) following treatment with EC-7072 (200 nM) for 24 hours. […]
structure (smiles),measurement,value
"CO[C@@H]([C@@H]1Cc2cc3cc(O[C@H]4C[C@@H](O[C@H]5C[C@@H](O)[C@H](O)[C@@H](C)O5)[C@H](O)[C@@H](C)O4)c(C)c(O)c3c(O)c2C(=O)[C@H]1O[C@H]1C[C@@H](O[C@H]2C[C@@H](O[C@H]3C[C@](C)(O)[C@H](O)[C@@H](C)O3)[C@@H](O)[C@@H](C)O2)[C@H](O)[C@@H](C)O1)[C@@H](O)C(C)=O [EC-7072, mithramycin SK]",T cell apoptosis (Annexin V/PI),no significant apoptosis
